In publication PMC10707934, “Design and Synthesis of Novel α-Methylchalcone Derivatives, Anti-Cervical Cancer Activity, and Reversal of Drug Resistance in HeLa/DDP Cells” (Molecules, 2023):

Assays:
[1] = system: C33A cells; assay: MTT anti-proliferation assay, C33A; format: cell-based, human; conditions: 48 h, mean ± SD
Method: (§1) All cell types, at a volume of 200 µL per well, were inoculated in 96-well plates at a density of 2.5 × 10^4 cells / mL and cultured for 24 h in an incubator with 5% CO2 at 37 °C. The old culture medium was replaced with 200 µL of fresh medium per well containing positive compounds, at concentrations of 1, 6.25, 12.5, 25, 50, and 100 μM. After 48 h of culture, 20 µL per well of 5 mg·mL^−1 MTT solution was added. After 4 h of culture, the old solution was discarded, and 150 µL per well of DMSO solution was added. Using an enzyme labeler (Thermo Fisher Scientific, Multiskan GO, Waltham, MA, USA), the plates were shaken for 10 min, OD values were determined at 490 nm, and the inhibition rate was calculated. Non-linear regression fitting of the cell growth rate was carried out using SPSS 23.0, and the IC50 of the compound was calculated. The inhibition rate was calculated using the formula: [(ODempty − ODtest)/(ODempty − ODnegative group)] × 100%, (ODempty blank group absorbance, ODtest absorbance of administration group, ODnegative group without cell culture medium). Each group contained six compound holes, and the experimental results averaged three trials. Complete medium containing only cells was used as the blank control; a complete medium without cells as was used as the negative control; and cisplatin, paclitaxel, and adriamycin were used as the positive controls. The concentration gradient was the same as that used for compounds 3a–3p.

[2] = system: HeLa/DDP cells; assay: Transwell Matrigel invasion assay, HeLa/DDP; format: cell-based, human; conditions: 24 h, control 399
Method: The Transwell ([…], Corning Incorporated, New York, NY, USA) was precoated using 50 μL Matrigel for 5 h at 37 °C to achieve solidification. HeLa cells was collected and suspended in a serum-free medium containing varying concentrations (0, 2.5, 5, and 10 μM) of compound 3k, along with 20 μM cisplatin and chalcone. These cell suspensions were then added to the upper wells of a permeabilization chamber at a density of 5 × 10^5 cells/mL. In the lower wells, 600 μL of DMEM containing 10% FBS was added, which had been prepared using 50 μL of Matrigel (diluted 1:8 with serum-free medium from Corning/BD Biosciences). After 24 h of incubation at 37 °C, the invasion cells were fixed using 4% paraformaldehyde and stained using 0.1% crystal violet for 30 min. Then, the chambers were washed using PBS and left to dry. Images were photographed using an inverted fluorescence microscope (Leica Instruments Co., Ltd., Microsystems CMS GmbH, Weizler, Hesse, Germany) and counted using Image J software (V1.8.0.112) for three independent fields randomly.
The experimental methods for the effects of compound 3k, cisplatin, and chalcone on HeLa/DDP cell invasion and migration were the same as in Section 3.3.6.

[3] = system: HeLa/DDP cells; assay: Annexin V-FITC/PI pro-apoptosis assay, HeLa/DDP; format: cell-based, human; conditions: 24 h
Method: Cell fluid (2 mL per well) at a concentration of 1.5 × 10^5 cells / mL was added to a 6-well plate and cultured in a cell incubator with 5% CO2 at 37 °C for 24 h. The old solution was discarded; 2 mL of the medium containing compound 3k was added to each well at a concentration gradient of 2.5, 5, and 10 μM; and the experiment was repeated three times at each concentration. Complete medium containing only cells was used as a blank control group, and 20 μM of cisplatin injection and chalcone was used as a positive control. Cells were harvested following a 24 h incubation period, adhering to the guidelines provided with the BD kit (BD Biosciences Pharmingen, 556547, 10975 Torreyana Road, San Diego, CA, USA). Subsequently, the cells were subjected to staining in a light-restricted environment at ambient temperature for a duration of 15 min, followed by filtration and analysis via flow cytometry.
The pro-apoptotic experiments of compound 3k, cisplatin, and chalcone on HeLa/DDP were performed in the same way as in Section 3.3.3. Western Blotting Analysis in the same way as in Section 3.3.4.

[4] = system: human cervical epithelial cells H8; assay: MTT toxicity assay, normal cervical epithelial cells H8; format: cell-based; conditions: 48 h, mean ± SD
Method: as §1

[5] = system: HeLa/DDP cells; assay: Cell cycle experiment (PI flow cytometry), HeLa/DDP; format: cell-based, human; conditions: 24 h; for blocking rate at the G2/M phase: control 4.05%
Method: (§2) A 2 mL volume of cell fluid per well at a concentration of 1 × 10^6 cells / mL was inoculated into a 6-well plate and cultured for 24 h. After removing the old solution, 2 mL of the cell culture medium containing 3k was added to each well, and each well was exposed for 24 h to a concentration gradient of 2.5, 5, and 10 μM. The experiment was repeated three times for each concentration. Complete culture medium containing only cells was used as the blank control group, and 20 μM cisplatin and chalcone injection were used as the positive control group. After 24 h of treatment, the cells were collected in a 15 mL centrifuge tube and fixed with 75% ethanol at 4 °C for 24 h. A 400 µL volume of PI/RNase staining buffer (BD Biosciences Pharmingen, 550825, 10975 Torreyana Road, San Diego, CA, USA) was uniformly dispersed and subjected to staining for 15 min at room temperature […]. The sample was subsequently filtered and analyzed using up-flow cytometry (BD, LSRFortessa, New York, NY, USA).
The experimental methods for the effect of compound 3k, cisplatin, and chalcone on the HeLa/DDP cell cycle were the same as in Section 3.3.5.

[6] = system: HeLa cells; assay: Cell cycle experiment (PI flow cytometry), HeLa; format: cell-based, human; conditions: 24 h
Method: as §2

Row | SMILES | IC50 [1] [µM] | number of invasion cells ([2]; 20 μM) | pro-apoptotic rate ([3]; 20 μM) [%] | IC50 [4] [µM] | percentage of cells in G0/G1 phase ([5]; 20 μM, control 57.03%) [%] | percentage of cells in the G0/G1 phase ([6]; 20 μM, control 52.1%) [%] | IC50 ([1]; Homo sapiens, C-33-A) [µM] | number of invasion cells ([2]; 2.5 μM) | number of invasion cells ([2]; 5 μM) | number of invasion cells ([2]; 10 μM) | pro-apoptotic rate ([3]; 2.5 μM) [%] | pro-apoptotic rate ([3]; 5 μM) [%] | pro-apoptotic rate ([3]; 10 μM) [%] | IC50 ([4]; Homo sapiens, Epithelial cell) [µM] | blocking rate at the G2/M phase ([5]; 2.5 μM) [%] | blocking rate at the G2/M phase ([5]; 5 μM) [%] | blocking rate at the G2/M phase ([5]; 10 μM) [%] | blocking rate at the G2/M phase ([6]; 2.5 μM) [%] | blocking rate at the G2/M phase ([6]; 5 μM) [%] | blocking rate at the G2/M phase ([6]; 10 μM) [%]
1 | N.N.[Cl][Pt][Cl] [Cisplatin, cisplatin, reference compound] | 6.05 ± 1.15 | 301 | 15.0 | 25.2 ± 1.29 | 65.07 | 73.93 |  |  |  |  |  |  |  |  |  |  |  |  |  | 
2 | COc1ccc(/C=C(\C)C(=O)c2ccc(Cl)c(Cl)c2)cc1OC [Compound 3k, (E)-1-(3,4-Dichlorophenyl)-3-(3,4-dimethoxyphenyl)-2-methylprop-2-en-1-one] |  |  |  |  |  |  | 12.1 ± 2.44 | 293 | 237 | 90 | 36.7 | 46.3 | 63.7 | > 100 | 14.71 | 22.85 | 52.72 | 14.04 | 22.84 | 40.18
